Data set [1] is described as follows: Metabolite analysis in blood. Type of data set: in vivo, ddY mouse. The conditions noted are these: i.v.; for Proportion of parent compound in blood: mouse plasma, mean±SD n=3. How it is done: A 5-week-old male ddY mouse was used as a normal mouse. [^123I]BIP-3 obtained by the method shown in Example 10, which was contained in saline containing 0.1 vol % Tween 80 and 10 vol % ethanol, was administered from the tail vein (3.70 MBq, 100 μL). 2 minutes, 10 minutes, or 30 minutes after administration, the mouse was slaughtered, and blood was collected into a test tube with an inner wall coated with Heparin Sodium Injection (manufactured by Nipro Pharma Corp.). After radioactivity measurement, the blood was centrifuged at 4000×g at 4° C. for 5 minutes and separated into plasma and cell components. To the obtained plasma, a 2-fold volume of methanol was added for protein denaturation, and the mixture was centrifuged at 4000×g at 4° C. for 5 minutes. The obtained supernatant was passed through Cosmonice Filter (S) (0.45 μm, 4 mm) (Nacalai Tesque, Inc.) and analyzed by reverse phase HPLC. Analytical conditions for HPLC were the same as the conditions used in Example 9.

A short description of data set [2]: Metabolite analysis in brain. The conditions noted are these: mouse brain, 2 min after i.v. administration. Type of data set: in vivo, ddY mouse. On the procedure: A 5-week-old male ddY mouse was used as a normal mouse. [^123I]BIP-3 obtained by the method shown in Example 10, which was contained in saline containing 0.1 vol % Tween 80 and 10 vol % ethanol, was administered from the tail vein (3.70 MBq, […]). After 2 minutes, the mouse was slaughtered, and the brain was excised, homogenized in methanol (2.00 mL) and TBS (2.00 mL), and centrifuged at 4000×g at 4° C. for 10 minutes, followed by the collection of a supernatant. The obtained supernatant was passed through Cosmonice Filter (S) (0.45 μm, 4 mm) (Nacalai Tesque, Inc.) and analyzed by reverse phase HPLC. Analytical conditions for HPLC were the same as the conditions used in Example 9.

Consider `[123I]c1ccc2c(c1)nc1ccccn12` [[^123I]BIP-3, 7-[^123I]iodobenzo[4,5]imidazo[1,2-a]pyridine], for which the “Proportion of parent compound in blood” value in data set [1] (2 min after administration) amounted to 83.1 ± 7.7; in data set [1] (10 min after administration), 23.6 ± 2.2; in data set [1] (30 min after administration), 8.4 ± 1.1. For the same compound, in data set [1] (mouse, HPLC of plasma), the “metabolite formation in blood” value is on record as “forms a highly water-soluble metabolite”. Also, the “metabolite analysis of brain homogenates (reverse phase HPLC)” value in data set [2] was “only the signal peak of the parent compound was detected”.

The values above are taken from patent US10080812B2, “Radioactive iodine labeled pyrido[1,2-a]benzoimidazole derivative compound” (priority 2015, dated 2018).
